In paper PMC10977697 (PLOS ONE, 2024):
Where a SMILES comes first, the peptide text is derived from it. Where no end group is shown, it is not given here.

What was measured:
HtrA1 = type: binding, human; settings: ratio of signal for target protein over BSA background
HtrA1 FL [1] = molecular target: T1, HtrA1 FL (Homo sapiens, UniProt Q92743); type: binding; settings: Biacore S200, 25°C; biotinylated HtrA1 FL on chip SA; 10 mM HEPES (8.0), 200mM NaCl, 0.25% CHAPS, 5% DMSO; steady state fitting; n/d = no binding; read-out: Kd(μM) SPR
T1 construct: HtrA1 (Q23-P480, 5654, Tni Baculovirus); made in house; host or cells: Trichoplusia ni (Tni) cells, baculovirus
T1 sequence (Q92743 23-480): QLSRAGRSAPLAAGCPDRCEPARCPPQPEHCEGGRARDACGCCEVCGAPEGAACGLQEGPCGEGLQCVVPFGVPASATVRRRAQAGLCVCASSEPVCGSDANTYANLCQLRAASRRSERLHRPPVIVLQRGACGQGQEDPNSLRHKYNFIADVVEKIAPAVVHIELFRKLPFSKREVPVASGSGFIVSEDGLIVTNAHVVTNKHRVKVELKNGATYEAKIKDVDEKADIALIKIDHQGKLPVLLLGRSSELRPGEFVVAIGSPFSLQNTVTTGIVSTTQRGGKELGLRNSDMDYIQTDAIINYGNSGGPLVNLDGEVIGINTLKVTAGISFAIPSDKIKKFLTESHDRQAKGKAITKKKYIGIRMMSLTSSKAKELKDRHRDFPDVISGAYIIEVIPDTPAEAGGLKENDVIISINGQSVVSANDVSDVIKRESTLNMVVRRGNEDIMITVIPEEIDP

HtrA1 FL [2] = molecular target: T1, HtrA1 FL; test: HtrA1 enzyme assay with substrate H2-OPT; type: biochemical; settings: 20 μM DCP, 1 nM HtrA1, 5 μM H2-OPT, 15 min pre-incubation, 37°C, pH 8.0, 0.1% DMSO; average of three independent experiments (Fig 3B)
Procedure: Human full-length HtrA1 (HtrA1 FL) was expressed in Trichoplusia ni cells and purified as described. Enzyme assays with the fluorescence-quenched synthetic substrate Mca-[…](Dnp)KK (H2-OPT) were carried out essentially as described (Eigenbrot 2012). DCP stock solutions in DMSO were diluted in 50 mM Tris-HCl, pH 8.0, 200 mM NaCl, 0.25% CHAPS (assay buffer) and incubated with HtrA1 in 96-well black optical bottom plates for 15 min at 37°C. A 10 mM stock solution of H2-OPT in DMSO was diluted with water, prewarmed at 37°C and then added to the DCP-enzyme mixtures. The final concentrations in the reaction mixtures were: 1 nM HtrA1, 20 μM DCP, 5 μM H2-OPT, 0.1% DMSO. Substrate cleavage was measured at 37°C on a SPECTRAmax M5 microplate reader (Molecular Devices) and the initial rates of cleavage determined. […] The enzyme activities were expressed as percent of control values (without DCP). The determined values represent the average ± S.D. of three independent experiments.

[3] = molecular target: T2, Notch2Long (Notch2 EGF6-EGF12) (Homo sapiens, UniProt Q04721); test: SPR binding of synthetic DCPs to Notch2Long; settings: Biacore S200, 25°C, 50 μL/min; synthetic in vitro folded peptide, 3-fold dilution from 100 μM; biotinylated N2L on chip SA; steady state fitting; at least three independent experiments; n/d = no binding
T2 construct: Biotinylated N2L protein (D219–E418, made in-house); His tag (cleaved yes); made in house; host or cells: CHO
T2 sequence (Q04721 219-418): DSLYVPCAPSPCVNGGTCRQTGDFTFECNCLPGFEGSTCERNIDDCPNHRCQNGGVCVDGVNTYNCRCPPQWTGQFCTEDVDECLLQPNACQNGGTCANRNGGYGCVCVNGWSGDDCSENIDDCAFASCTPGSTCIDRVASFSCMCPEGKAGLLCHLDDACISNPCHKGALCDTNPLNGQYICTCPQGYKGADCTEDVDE
Procedure: (§1) All binding experiments were performed using a Biacore S200 instrument (GE Healthcare) at 25°C at a flow rate of 50 μL/min. The kinetics and affinity measurements were carried out using either single-cycle or multi-cycle kinetics (SCK or MCK), solvent corrected and referenced by subtracting the signal to the blank flow cell. Binding affinity and kinetic parameters (association and dissociation rate constants, and dissociation equilibrium constant) were calculated with the Biacore S200 Evaluation Software (version 1.1.1, Cytiva) using either a 1:1 binding model or a steady-state equilibrium model (according to the manufacturer’s instructions).
(§2) Biotinylated N2L protein (D219–E418, made in-house) and NRR protein (A1423–Q1677, made in-house) were captured at around 500, 1000 and 1500 RU on Sensor Chip SA (Cytiva).

Notch2NRR = test: Spot phage ELISA, Notch2NRR; type: binding, human; settings: ratio of signal for target protein over BSA background
[4] = molecular target: T3, Notch2NRR (Notch2 NRR domain) (Homo sapiens, UniProt Q04721); test: SPR binding of synthetic DCPs to Notch2NRR; settings: Biacore S200, 25°C; synthetic folded peptide, 3-fold dilution from 100 μM; biotinylated NRR on chip SA; steady state fitting
T3 construct: NRR protein (A1423–Q1677, made in-house); His tag (cleaved yes); made in house; host or cells: CHO
T3 sequence (Q04721 1423-1677): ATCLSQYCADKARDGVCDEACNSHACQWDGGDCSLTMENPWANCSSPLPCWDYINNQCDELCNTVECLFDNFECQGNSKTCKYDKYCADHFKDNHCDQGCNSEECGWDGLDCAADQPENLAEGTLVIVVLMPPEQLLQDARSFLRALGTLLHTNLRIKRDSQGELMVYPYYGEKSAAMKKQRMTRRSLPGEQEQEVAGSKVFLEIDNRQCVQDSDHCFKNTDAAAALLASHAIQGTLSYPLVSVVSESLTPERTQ
Procedure: as §1, §2

BamA-amphipol = test: Spot phage ELISA, BamA-amphipol; type: binding, bacterial

Molecule	Kd [3] [µM]	s/n ratio (Notch2NRR)	Kd [4] [µM]	further results
CC[C@H](C)[C@@H]1NC(=O)[C@H](CCC(N)=O)NC(=O)[C@H](CCCNC(=N)N)NC(=O)[C@H](C(C)C)NC(=O)[C@@H]2CSSC[C@H](NC(=O)[C@H](CC(=O)O)NC(=O)[C@H](Cc3ccccc3)NC(=O)[C@H](C)N)C(=O)N[C@@H](CC(C)C)C(=O)NCC(=O)N[C@@H](CCC(N)=O)C(=O)N[C@H]3CSSC[C@H](NC(=O)[C@H](Cc4ccc(O)cc4)NC(=O)[C@H](Cc4c[nH]cn4)NC(=O)[C@H](CO)NC(=O)[C@H](CC(C)C)NC(=O)[C@H](CC(N)=O)NC(=O)[C@H]([C@@H](C)CC)NC(=O)[C@H](C(C)C)NC(=O)[C@H](CCCNC(=N)N)NC(=O)[C@H](Cc4c[nH]c5ccccc45)NC(=O)[C@H](C(C)C)NC1=O)C(=O)N[C@@H](CC(N)=O)C(=O)N[C@@H](CO)C(=O)N[C@@H](CO)C(=O)N[C@H](C(=O)N[C@H](C(=O)N[C@@H](CCCNC(=N)N)C(=O)O)[C@@H](C)O)CSSC[C@H](NC(=O)[C@H](CCCNC(=N)N)NC(=O)CNC3=O)C(=O)N[C@@H](CC(=O)O)C(=O)N[C@@H](Cc1ccccc1)C(=O)N[C@@H](Cc1c[nH]cn1)C(=O)N[C@@H](CCCCN)C(=O)N[C@@H](CC(C)C)C(=O)N[C@@H](CCC(N)=O)C(=O)N2 [HtrA1_AVR62] (HELM PEPTIDE1{A.F.D.C.L.G.Q.C.G.R.C.D.F.H.K.L.Q.C.V.R.Q.I.V.W.R.V.I.N.L.S.H.Y.C.N.S.S.C.T.R}$PEPTIDE1,PEPTIDE1,4:R3-18:R3|PEPTIDE1,PEPTIDE1,8:R3-33:R3|PEPTIDE1,PEPTIDE1,11:R3-37:R3$$$V2.0; N-terminus and C-terminus assumed)	–	–	–	S/N (HtrA1): 19.5; Kd (HtrA1 FL [1]): > 15 µM; inhibition of HtrA1 activity (HtrA1 FL [2]): more than 75%
CC[C@H](C)[C@@H]1NC(=O)[C@@H](NC(=O)CN)CSSC[C@@H]2NC(=O)CNC(=O)[C@H](C)NC(=O)[C@H](CCC(=O)O)NC(=O)[C@@H]3CSSC[C@@H](C(=O)NCC(=O)O)NC(=O)[C@H](CCC(N)=O)NC(=O)[C@H]([C@@H](C)CC)NC(=O)[C@H](Cc4c[nH]c5ccccc45)NC(=O)[C@H](C(C)C)NC(=O)[C@H](CCC(=O)O)NC(=O)[C@H](CSSC[C@H](NC(=O)[C@H](Cc4c[nH]c5ccccc45)NC(=O)[C@H](CC(C)C)NC(=O)[C@H](Cc4c[nH]cn4)NC(=O)[C@H](CO)NC(=O)[C@H](CCCCN)NC1=O)C(=O)N1CCC[C@H]1C(=O)N[C@@H](CCCCN)C(=O)N[C@@H]([C@@H](C)O)C(=O)N[C@@H](CO)C(=O)N[C@@H](CC(=O)O)C(=O)N3)NC(=O)[C@H]([C@@H](C)CC)NC2=O [N2L.EET31.43.24] (HELM PEPTIDE1{G.C.I.K.S.H.L.W.C.P.K.T.S.D.C.E.A.G.C.I.C.E.V.W.I.Q.C.G}$PEPTIDE1,PEPTIDE1,2:R3-19:R3|PEPTIDE1,PEPTIDE1,9:R3-21:R3|PEPTIDE1,PEPTIDE1,15:R3-27:R3$$$V2.0)	3.5	–	–	–
CC[C@H](C)[C@@H]1NC(=O)[C@@H](NC(=O)CN)CSSC[C@@H]2NC(=O)CNC(=O)[C@H](C)NC(=O)[C@H](CCC(=O)O)NC(=O)[C@@H]3CSSC[C@@H](C(=O)NCC(=O)O)NC(=O)[C@H](CCC(N)=O)NC(=O)[C@H]([C@@H](C)CC)NC(=O)[C@H](Cc4c[nH]c5ccccc45)NC(=O)[C@H]([C@@H](C)CC)NC(=O)[C@H](CCC(=O)O)NC(=O)[C@H](CSSC[C@H](NC(=O)[C@H](Cc4c[nH]c5ccccc45)NC(=O)[C@H](C(C)C)NC(=O)[C@H](Cc4c[nH]cn4)NC(=O)[C@H](CO)NC(=O)[C@H](CCCNC(=N)N)NC1=O)C(=O)N[C@@H](CCCCN)C(=O)N[C@@H](CCC(N)=O)C(=O)N[C@@H](CC(=O)O)C(=O)N[C@@H](CO)C(=O)N[C@@H](CC(=O)O)C(=O)N3)NC(=O)[C@H]([C@@H](C)CC)NC2=O [N2L.EET31.43.43] (HELM PEPTIDE1{G.C.I.R.S.H.V.W.C.K.Q.D.S.D.C.E.A.G.C.I.C.E.I.W.I.Q.C.G}$PEPTIDE1,PEPTIDE1,2:R3-19:R3|PEPTIDE1,PEPTIDE1,9:R3-21:R3|PEPTIDE1,PEPTIDE1,15:R3-27:R3$$$V2.0)	3.5	–	–	–
CC(C)C[C@@H]1NC(=O)[C@@H](NC(=O)[C@H](CC(=O)O)NC(=O)[C@H](Cc2ccccc2)NC(=O)[C@H](C)N)CSSC[C@@H]2NC(=O)[C@H](CCC(N)=O)NC(=O)[C@H](CC(C)C)NC(=O)[C@H](CCCCN)NC(=O)[C@H](Cc3c[nH]cn3)NC(=O)[C@H](Cc3ccccc3)NC(=O)[C@H](CC(=O)O)NC(=O)[C@@H]3CSSC[C@@H](C(=O)N[C@H](C(=O)N[C@@H](CCCNC(=N)N)C(=O)O)[C@@H](C)O)NC(=O)[C@H](CO)NC(=O)[C@H](CO)NC(=O)[C@H](CC(N)=O)NC(=O)[C@H](CSSC[C@H](NC(=O)[C@H](CCC(N)=O)NC(=O)CNC1=O)C(=O)NCC(=O)N[C@@H](CCCNC(=N)N)C(=O)N3)NC(=O)[C@H](Cc1ccc(O)cc1)NC(=O)[C@H](CCC(N)=O)NC(=O)[C@H](CCCCN)NC(=O)[C@H](Cc1ccc(O)cc1)NC(=O)[C@H]([C@@H](C)O)NC(=O)[C@H](Cc1c[nH]c3ccccc13)NC(=O)[C@H](CO)NC(=O)[C@H](Cc1ccc(O)cc1)NC(=O)[C@@H]1CCCN1C(=O)[C@H](C(C)C)NC2=O [N2N-AVR-19] (HELM PEPTIDE1{A.F.D.C.L.G.Q.C.G.R.C.D.F.H.K.L.Q.C.V.P.Y.S.W.T.Y.K.Q.Y.C.N.S.S.C.T.R}$PEPTIDE1,PEPTIDE1,4:R3-18:R3|PEPTIDE1,PEPTIDE1,8:R3-29:R3|PEPTIDE1,PEPTIDE1,11:R3-33:R3$$$V2.0; N-terminus and C-terminus assumed)	–	35.7	9.4	–
CC(C)C[C@@H]1NC(=O)[C@@H](NC(=O)[C@H](CC(=O)O)NC(=O)[C@H](Cc2ccccc2)NC(=O)[C@H](C)N)CSSC[C@@H]2NC(=O)[C@H](CCC(N)=O)NC(=O)[C@H](CC(C)C)NC(=O)[C@H](CCCCN)NC(=O)[C@H](Cc3c[nH]cn3)NC(=O)[C@H](Cc3ccccc3)NC(=O)[C@H](CC(=O)O)NC(=O)[C@@H]3CSSC[C@@H](C(=O)N[C@H](C(=O)N[C@@H](CCCNC(=N)N)C(=O)O)[C@@H](C)O)NC(=O)[C@H](CO)NC(=O)[C@H](CO)NC(=O)[C@H](CC(N)=O)NC(=O)[C@H](CSSC[C@H](NC(=O)[C@H](CCC(N)=O)NC(=O)CNC1=O)C(=O)NCC(=O)N[C@@H](CCCNC(=N)N)C(=O)N3)NC(=O)[C@H](Cc1ccc(O)cc1)NC(=O)[C@@H]1CCCN1C(=O)[C@H](CO)NC(=O)[C@H](Cc1c[nH]cn1)NC(=O)[C@H](CCCNC(=N)N)NC(=O)[C@H](CC(N)=O)NC(=O)[C@H](CO)NC(=O)[C@H](Cc1c[nH]c3ccccc13)NC(=O)[C@H](C(C)C)NC2=O [N2N-AVR-n6] (HELM PEPTIDE1{A.F.D.C.L.G.Q.C.G.R.C.D.F.H.K.L.Q.C.V.W.S.N.R.H.S.P.Y.C.N.S.S.C.T.R}$PEPTIDE1,PEPTIDE1,4:R3-18:R3|PEPTIDE1,PEPTIDE1,8:R3-28:R3|PEPTIDE1,PEPTIDE1,11:R3-32:R3$$$V2.0; N-terminus and C-terminus assumed)	–	39.3	0.8	–
GCTMWQRLQAKYCKQDSDCLAGCVCHAREKCG (also: bicyclic or more (positions not given here)) [BamA-amphipol EET I-II 1]	–	–	–	S/N (BamA-amphipol; ratio of signal for target protein over BSA background): 8.1; ELISA (BamA-amphipol; spot phage ELISA signal, DCP displayed on M13 p8): 1.50
